Columns and labels:
MERS-CoV 3CLpro = MERS-CoV 3CLpro (Middle East respiratory syndrome-related coronavirus, UniProt K9N638); experiment: biochemical; details: MERS IC50, 75 nM MERS-CoV 3CLpro, 6 μM peptide 1 substrate, 25° C., 1.5 hrs, pH 7.5
SARS-CoV-2 3CLpro = SARS-CoV-2 3CLpro (Severe acute respiratory syndrome coronavirus 2, UniProt P0DTD1); experiment: FRET based protease assay, SARS-CoV-2 3CL; type: biochemical, SARS-CoV-2 (strain BetaCoV/Wuhan/WIV04/2019)

MERS-CoV 3CLpro, sequence (K9N638 3248-3553 limits assumed): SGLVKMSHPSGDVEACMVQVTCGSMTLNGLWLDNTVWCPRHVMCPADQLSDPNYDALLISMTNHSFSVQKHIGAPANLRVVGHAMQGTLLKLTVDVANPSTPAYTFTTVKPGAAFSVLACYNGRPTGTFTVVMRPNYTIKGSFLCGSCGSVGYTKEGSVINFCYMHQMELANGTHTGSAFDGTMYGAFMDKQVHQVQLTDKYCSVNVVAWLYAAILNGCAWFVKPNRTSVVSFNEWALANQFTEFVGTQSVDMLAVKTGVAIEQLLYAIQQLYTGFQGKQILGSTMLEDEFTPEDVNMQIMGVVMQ

Row | SMILES | IC50 (MERS-CoV 3CLpro) [µM] | IC50 (SARS-CoV-2 3CLpro) [µM]
1 | CC1(C)[C@@H]2[C@H]3C(=O)N[C@H](C#N)C[C@H]4C(=O)NC[C@@H]4CCCCC(=O)N3C[C@@H]21 [Example 25] | 1 to 20 | 1 to 20
2 | CCC(C)(C)[C@@H]1NC(=O)[C@@H](NC(=O)OC(C)(C)C)CCCC[C@H]2CNC(=O)[C@H]2C[C@@H](C#N)NC1=O [Example 145] | 1 to 20 | 1 to 20
3 | CC(C)(C)OC(=O)N[C@H]1CCC[C@H]2CCNC(=O)[C@H]2C[C@@H](C#N)NC(=O)[C@@H]2[C@H]3CCC[C@H]3CN2C1=O [Example 100] | 1 to 20 | 1 to 20
4 | CC(C)(C)C[C@@H]1NC(=O)[C@@H](NC(=O)c2ccc(F)c(C(F)(F)F)c2)CCCC[C@H]2CNC(=O)[C@H]2C[C@@H](C#N)NC1=O [Example 142] | 0.1 to 1 | 0.1 to 1
5 | CC(C)(C)C(=O)N[C@H]1CCCC[C@H]2CNC(=O)[C@H]2C[C@@H](C#N)NC(=O)[C@@H]2[C@H]3CCC[C@H]3CN2C1=O [Example 70] | 0.1 to 1 | < 0.1
6 | CC1(C)[C@@H]2[C@H]3C(=O)N[C@H](C#N)C[C@@H]4C(=O)NC[C@@H]4CCCC[C@H](NC(=O)C45CCC(C4)C5)C(=O)N3C[C@@H]21 [Example 148] | 0.1 to 1 | < 0.1
7 | CC(C)(C)OC(=O)N[C@@H]1CCCC[C@H]2CNC(=O)[C@H]2C[C@@H](C#N)NC(=O)[C@@H]2[C@@H]3[C@H](CN2C1=O)C3(C)C [Example 128] | > 20 | > 20
8 | CC(C)C[C@@H]1NC(=O)[C@@H](Cc2ccccc2)CCCCC[C@H]2CNC(=O)[C@H]2C[C@@H](C#N)NC1=O [Example 50] | 1 to 20 | 1 to 20
9 | CC1(C)[C@@H]2[C@H]3C(=O)N[C@H](C#N)C[C@@H]4C(=O)NC[C@@H]4CCCC[C@H](NS(=O)(=O)c4ccc(F)cc4F)C(=O)N3C[C@@H]21 [Example 157] | < 0.1 | < 0.1
10 | Cc1nc(C(=O)N[C@H]2CCCC[C@H]3CNC(=O)[C@H]3C[C@@H](C#N)NC(=O)[C@@H]3[C@@H]4[C@H](CN3C2=O)C4(C)C)cs1 [Example 113] | < 0.1 | 0.1 to 1
11 | CC1(C(=O)N[C@H]2CCCC[C@H]3CNC(=O)[C@H]3C[C@@H](C#N)NC(=O)[C@@H]3[C@@H]4[C@H](CN3C2=O)C4(C)C)CCC1 [Example 118] | 0.1 to 1 | < 0.1
12 | CC(C)(C)OC(=O)NN1CCCC[C@H]2CNC(=O)[C@H]2C[C@@H](C#N)NC(=O)[C@@H]2[C@@H]3[C@H](CN2C1=O)C3(C)C [Example 168] | 1 to 20 | 1 to 20
13 | CC(C)C[C@@H]1NC(=O)[C@@H](Cc2ccccc2)CCC[C@@H]2CNC(=O)[C@@H]2C[C@@H](C=O)NC1=O [Example 9] | 1 to 20 | 0.1 to 1
14 | CC1(C)[C@@H]2[C@H]3C(=O)N[C@H](C#N)C[C@@H]4C(=O)NC[C@@H]4CCCC[C@H](NC(=O)C4CC(F)(F)C4)C(=O)N3C[C@@H]21 [Example 62] | < 0.1 | < 0.1
15 | CC1(C)[C@@H]2[C@H]3C(=O)N[C@H](C#N)C[C@@H]4C(=O)NC[C@@H]4CCCC[C@H](NC(=O)c4cncnc4)C(=O)N3C[C@@H]21 [Example 107] | < 0.1 | < 0.1
16 | CC(C)C[C@@H]1NC(=O)[C@@H](Cc2ccccc2)CCCC[C@H]2CNC(=O)[C@H]2C[C@@H](C=O)NC1=O [Example 36] | 0.1 to 1 | < 0.1
17 | CN1C[C@@H]2CCCC[C@H](NC(=O)OC(C)(C)C)C(=O)N3C[C@H]4[C@@H]([C@H]3C(=O)N[C@H](C#N)C[C@@H]2C1=O)C4(C)C [Example 140] | 0.1 to 1 | 0.1 to 1
18 | CC1(C)[C@@H]2[C@H]3C(=O)N[C@H](C#N)C[C@@H]4C(=O)NC[C@@H]4/C=C/CC[C@H](NC(=O)C4CC(F)(F)C4)C(=O)N3C[C@@H]21 [Example 83] | < 0.1 | < 0.1

Row | SMILES | IC50 (MERS-CoV 3CLpro) [µM] | IC50 (SARS-CoV-2 3CLpro) [µM]
19 | CC(C)(C)C(=O)N[C@H]1C/C=C/[C@H]2CNC(=O)[C@H]2C[C@@H](C#N)NC(=O)[C@@H]2[C@@H]3[C@H](CN2C1=O)C3(C)C [Example 63] | 0.1 to 1 | < 0.1
20 | CC(C)C[C@@H]1NC(=O)[C@@H](Cc2cccc(C(F)(F)F)c2)CCCC[C@H]2CNC(=O)[C@H]2C[C@@H](C#N)NC1=O [Example 40] | 1 to 20 | 1 to 20
21 | CC(C)(C)OC(=O)N[C@H]1CCCC[C@H]2CNC(=O)[C@H]2C[C@@H](C#N)NC(=O)[C@@H]2CCCCCN2C1=O [Example 143] | 0.1 to 1 | 0.1 to 1
22 | CC(C)(C)CC(=O)N[C@H]1CCCC[C@H]2CNC(=O)[C@H]2C[C@@H](C#N)NC(=O)[C@@H]2[C@@H]3[C@H](CN2C1=O)C3(C)C [Example 73] | < 0.1 | < 0.1
23 | Cc1cc(C(=O)N[C@H]2CCCC[C@H]3CNC(=O)[C@H]3C[C@@H](C#N)NC(=O)[C@@H]3[C@@H]4[C@H](CN3C2=O)C4(C)C)no1 [Example 122] | < 0.1 | < 0.1
24 | CCO[C@@H]1C[C@H]2C(=O)N[C@H](C#N)C[C@@H]3C(=O)NC[C@@H]3CCCC[C@H](NC(=O)OC(C)(C)C)C(=O)N2C1 [Example 144] | 1 to 20 | < 0.1
25 | CC(C)(C)OC(=O)N[C@H]1CCCC[C@H]2CNC(=O)[C@H]2C[C@@H](C#N)NC(=O)[C@@H]2[C@@H]3[C@H](CN2C1=O)C3(C)C [Example 72] | < 0.1 | < 0.1
26 | CC1(C)[C@@H]2[C@H]3C(=O)N[C@H](C#N)C[C@@H]4C(=O)NC[C@@H]4/C=C/CC[C@H](NC(=O)C(F)(F)F)C(=O)N3C[C@@H]21 [Example 108] | < 0.1 | < 0.1
27 | CC(C)C[C@@H]1NC(=O)[C@@H](OC(C)(C)C)CCC[C@H]2CNC(=O)[C@@H]2C[C@@H](C#N)NC1=O [Example 29] | > 20 | > 20
28 | CC(C)C[C@@H]1NC(=O)[C@@H](OC(C)(C)C)CCC[C@H]2CNC(=O)[C@@H]2C[C@@H](C=O)NC1=O [Example 20] | > 20 | 1 to 20
29 | CC(C)(C)OC(=O)N[C@H]1CC/C=C/[C@H]2CNC(=O)[C@H]2C[C@@H](C#N)NC(=O)[C@@H]2[C@H]3CCC[C@H]3CN2C1=O [Example 112] | 0.1 to 1 | < 0.1
30 | CC(C)(C)OC(=O)N[C@H]1CC/C=C\[C@H]2CCNC(=O)[C@H]2CC(C#N)NC(=O)[C@@H]2[C@H]3CCC[C@H]3CN2C1=O (stereo partly shown) [Example 97] | 0.1 to 1 | < 0.1
31 | CC1(C)[C@@H]2[C@H]3C(=O)N[C@H](C#N)C[C@@H]4C(=O)NC[C@@H]4CCCC[C@H](NC(=O)c4cc(C(F)(F)F)on4)C(=O)N3C[C@@H]21 [Example 153] | 0.1 to 1 | < 0.1
32 | CC1(C)[C@@H]2[C@H]3C(=O)N[C@H](C#N)C[C@@H]4C(=O)NCC[C@@H]4CCCC[C@H](NC(=O)OC4CCCC4)C(=O)N3C[C@@H]21 [Example 124] | < 0.1 | < 0.1
33 | CC1(C)[C@@H]2[C@H]3C(=O)N[C@H](C#N)C[C@@H]4C(=O)NCC[C@@H]4CCCC[C@H](NC(=O)C45CC(C(F)(F)F)(C4)C5)C(=O)N3C[C@@H]21 [Example 135] | < 0.1 | 0.1 to 1
34 | CC(C)(C)C[C@@H]1NC(=O)[C@@H](NC(=O)c2ccc(Cl)c(Cl)c2)CCCC[C@H]2CNC(=O)[C@H]2C[C@@H](C#N)NC1=O [Example 136] | < 0.1 | < 0.1
35 | CC(C)C[C@@H]1NC(=O)[C@@H](Cc2ccccc2)CCC[C@H]2CNC(=O)[C@@H]2C[C@@H](C#N)NC1=O [Example 27] | 1 to 20 | 1 to 20

— patent publication US20260325540A1 (priority 2023, published 2026)
